Test results reported in US3956336A, “9-Alkoxy-5-methyl-6,7-benzomorphans” (Bristol-Myers Company, priority 1975, dated 1976).

Tests used:
Format in all cases: in vivo
[1] = system: analgesic effect induced by morphine; assay: animal or person; details: subcutaneous, morphine 15 mg./kg. sc., 50 percent reduction of analgesic effect, as free base; for ED50: rat, read-out: ED50 Antagonist Activity, Morphine Antagonism Rat Tail Flick
Method: (§1) In vivo testing was conducted on various compounds of the instant invention in the form of their respective soluble salts to determine their agonist and/or antagonist properties. The figures reported are the number of milligrams/kilogram of body weight of compound that produced an agonist or antagonist effect in 50% of the mice and rats so tested (ED50). All data is obtained by subcutaneous administration.
(15 mg./kg. sc.) as measured by the rat tail flick procedure (Harris, L.
S. and Pierson, A. K., J. Pharmacol. & Expt. Therap., 143, 141; 1964).

[2] = system: Straub Tail induced by oxymorphone; assay: Antagonism of oxymorphone-induced Straub Tail; details: mice, subcutaneous, oxymorphone 2 mg./kg. sc., as free base; for ED50: Mus musculus, read-out: ED50 Antagonist Activity, Oxymorphone Straub Tail
Method: as §1
^2 Antagonism of Straub Tail induced by oxymorphone (2 mg./kg. sc.) i

[3] = system: phenylquinone induced writhing; assay: Phenylquinone writhing, agonist activity, mouse; details: subcutaneous, 50 percent reduction in number of writhing, as free base; for ED50: sc
Method: as §1
(§2) ^1 A 50 percent reduction in number of phenylquinone induced writhing
(§3) (Siegmund, E. A. et al., Proc. Soc. Biol. & Med. 95, 729; 1957).

[4] = system: righting reflex loss induced by oxymorphone; assay: animal or person; details: rats, subcutaneous, oxymorphone 1.5 mg./kg. sc., as free base; for ED50: Rattus norvegicus, read-out: ED50 Antagonist Activity, Oxymorphone Narcosis
Method: as §1
^3 Antagonism of righting reflex loss induced by oxymorphone (1.5
mg./kg. sc.) in 50 percent of rats.

[5] = system: phenylquinone induced writhing; assay: Phenylquinone writhing, agonist activity, rat; details: subcutaneous, 50 percent reduction in number of writhing, as free base
Method: as §1, §2, §3

Compound | ED50 [1] | ED50 [2] | ED50 [3] | other results
CO[C@@]1(C)[C@H]2Cc3ccc(O)cc3[C@]1(C)CCN2CC1CC1 (relative stereo) [dl-XIIb, 2-Cyclopropylmethyl-5,9β-dimethyl-2'-hydroxy-9α-methoxy-6,7-benzomorphan] | 0.011 mg/kg | 0.16 mg/kg | 1.25 mg/kg | ED50 [4]: ~0.017 mg/kg
C=CCO[C@H]1[C@H]2Cc3ccc(O)cc3[C@]1(C)CCN2CC1CC1 (relative stereo) [dl-XIIe, 9α-Allyloxy-2-cyclopropylmethyl-2'-hydroxy-5-methyl-6,7-benzomorphan] |  | ~0.63 mg/kg | 5.3 mg/kg | 
CO[C@]1(C)[C@H]2Cc3ccc(O)cc3[C@]1(C)CCN2CC1CC1 (relative stereo) [dl-XIIr, 2-Cyclopropylmethyl-5,9α-dimethyl-2'-hydroxy-9β-methoxy-6,7-benzomorphan] |  | 3.5 mg/kg | 1.8 mg/kg | 
CO[C@H]1[C@H]2Cc3ccc(O)cc3[C@]1(C)CCN2CC1CC1 (relative stereo) [dl-XIIa, 2-Cyclopropylmethyl-2'-hydroxy-9α-methoxy-5-methyl-6,7-benzomorphan] | 0.06 mg/kg | 0.24 mg/kg | 0.087 mg/kg | ED50 ([5]; sc): 0.034 mg/kg; ED50 [4]: 0.04 mg/kg
COC1(C)C2Cc3ccc(O)cc3C1(C)CCN2CC1CCC1 (racemic) [dl-XIIv, 2-Cyclobutylmethyl-5,9β-dimethyl-2'-hydroxy-9β-methoxy-6,7-benzomorphan] |  |  |  | ED50 Antagonist Activity, Oxymorphone Straub Tail [2]: 7.5 mg/kg; ED50 Agonist Activity, Phenylquinone Writhing, Mouse [3]: 0.19 mg/kg
C=CC[C@]12CCN(CC3CC3)[C@H](Cc3ccc(O)cc31)[C@@H]2OC (relative stereo) [dl-XIIm, 5-Allyl-2-cyclopropylmethyl-2'-hydroxy-9α-methoxy-6,7-benzomorphan] | 0.046 mg/kg |  | 0.026 mg/kg | 
CCO[C@H]1[C@H]2Cc3ccc(O)cc3[C@]1(C)CCN2CC1CC1 (relative stereo) [dl-XIId, 2-Cyclopropylmethyl-9α-ethoxy-2'-hydroxy-5-methyl-6,7-benzomorphan] | 0.029 mg/kg | 0.32 mg/kg | 0.33 mg/kg | 
CO[C@@]1(C)[C@H]2Cc3ccc(O)cc3[C@]1(C)CCN2CC1CCC1 (relative stereo) [dl-XIIc, 2-Cyclobutylmethyl-5,9β-dimethyl-2'-hydroxy-9α-methoxy-6,7-benzomorphan] |  | 1.25 mg/kg | 2.18 mg/kg | 
CO[C@@H]1[C@H]2Cc3ccc(O)cc3[C@]1(C)CCN2CC1CC1 (relative stereo) [dl-XIIt, 2-Cyclopropylmethyl-2'-hydroxy-9β-methoxy-5-methyl-6,7-benzomorphan] | 0.18 mg/kg | ~7 mg/kg | ~20 mg/kg | 
COC1C2Cc3ccc(O)cc3C1(C)CCN2CC1CC1 (single isomer, unassigned; (-)) [l-XIIa, (-)-2-Cyclopropylmethyl-2'-hydroxy-9α-methoxy-5-methyl-6,7-benzomorphan] |  |  |  | ED50 Antagonist Activity, Morphine Antagonism Rat Tail Flick [1]: 0.019 mg/kg; ED50 Antagonist Activity, Oxymorphone Straub Tail [2]: 0.10 mg/kg; ED50 Agonist Activity, Phenylquinone Writhing, Mouse [3]: 0.053 mg/kg; ED50 Agonist Activity, Phenylquinone Writhing, Rat [5]: 0.021 mg/kg; ED50 Antagonist Activity, Oxymorphone Narcosis [4]: 0.017 mg/kg
CC(C)=CCN1CCC2(C)c3cc(O)ccc3CC1C2C (stereo not drawn) [Pentazocine, reference compound] |  |  |  | ED50 [4]: 10.1 mg/kg
CCCC12CCN(CC3CC3)C(Cc3ccc(O)cc31)C2OC (racemic) [dl-XIIn, 2-cyclopropylmethyl-2'-hydroxy-9α-methoxy-5-propyl-6,7-benzomorphan] | 0.033 mg/kg |  | 0.2 mg/kg | 
